Measured values from ChEMBL document CHEMBL1201862, “PubChem BioAssay data set” (2004).
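Five concentrations, 48 hours, 96-well plates. GI50: concentration for 50% inhibition of growth.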 The source made the active and inactive calls. Cut-off read from the data, not from the text of the source: active = GI50 up to about 1.1 µM and inactive = higher.

Assays:
Experiment in all cases: inhibition of tumour cell growth, NCI panel, 48 h
DU-145 = tested on: DU-145
HL-60 = tested on: HL-60
IGROV-1 = tested on: IGROV-1
K562 = tested on: K562
KM12 = tested on: KM12
M14 = tested on: M14
MDA-N = tested on: MDA-N
NCI/ADR-RES = tested on: NCI/ADR-RES
OVCAR-4 = tested on: OVCAR-4
OVCAR-8 = tested on: OVCAR-8
RPMI-8226 = tested on: RPMI-8226
SF-539 = tested on: SF-539
SK-MEL-2 = tested on: SK-MEL-2
SNB-19 = tested on: SNB-19
SR = tested on: SR
T47D = tested on: T47D
TK-10 = tested on: TK-10
UACC-62 = tested on: UACC-62
CCRF-CEM = tested on: CCRF-CEM

COc1ccccc1N1C(=O)/C(=C\c2cccc(Oc3ccccc3)c2)SC1c1ccccc1 (stereo not given)
GI50 (DU-145): 57.5 µM (inactive)
GI50 (HL-60): < 0.01 µM (active)
GI50 (IGROV-1): 21.1 µM (inactive)
GI50 (K562): 15 µM (inactive)
GI50 (KM12): 42.6 µM (inactive)
GI50 (M14): 24.4 µM (inactive)
GI50 (MDA-N): 23.9 µM (inactive)
GI50 (NCI/ADR-RES): 59.6 µM (inactive)
GI50 (OVCAR-4): 30.6 µM (inactive)
GI50 (OVCAR-8): 31.3 µM (inactive)
GI50 (RPMI-8226): 24.6 µM (inactive)
GI50 (SF-539): 34.5 µM (inactive)
GI50 (SK-MEL-2): 29.9 µM (inactive)
GI50 (SNB-19): 31 µM (inactive)
GI50 (SR): 19.6 µM (inactive)
GI50 (T47D): 27.2 µM (inactive)
GI50 (TK-10): > 100 µM (inactive)
GI50 (UACC-62): 5.75 µM (inactive)

COC(=O)CC(C)(N[S+]([O-])c1ccc(C)cc1)c1ccccc1 (stereo not given)
GI50 (DU-145): > 100 µM (inactive)
GI50 (HL-60): > 100 µM (inactive)
GI50 (IGROV-1): > 100 µM (inactive)
GI50 (K562): > 100 µM (inactive)
GI50 (KM12): > 100 µM (inactive)
GI50 (MDA-N): > 100 µM (inactive)
GI50 (NCI/ADR-RES): > 100 µM (inactive)
GI50 (OVCAR-4): > 100 µM (inactive)
GI50 (RPMI-8226): > 100 µM (inactive)
GI50 (SF-539): > 100 µM (inactive)
GI50 (SK-MEL-2): > 100 µM (inactive)
GI50 (SNB-19): > 100 µM (inactive)
GI50 (SR): > 100 µM (inactive)
GI50 (T47D): > 100 µM (inactive)
GI50 (TK-10): > 100 µM (inactive)
GI50 (UACC-62): > 100 µM (inactive)

C=C(C)C1Cc2c(cc(OC)c3c(=O)c4cccc(O)c4oc23)O1 (stereo not given)
GI50 (CCRF-CEM): 74.6 µM (inactive)
GI50 (DU-145): 45.8 µM (inactive)
GI50 (HL-60): 39.9 µM (inactive)
GI50 (IGROV-1): 18.4 µM (inactive)
GI50 (K562): > 100 µM (inactive)
GI50 (KM12): 46.5 µM (inactive)
GI50 (M14): 24.1 µM (inactive)
GI50 (MDA-N): 20 µM (inactive)
GI50 (NCI/ADR-RES): 24.8 µM (inactive)
GI50 (OVCAR-4): 18.7 µM (inactive)
GI50 (OVCAR-8): 21.6 µM (inactive)
GI50 (SF-539): 18.4 µM (inactive)
GI50 (SK-MEL-2): 18.6 µM (inactive)
GI50 (SNB-19): 26.3 µM (inactive)
GI50 (SR): 36.1 µM (inactive)
GI50 (T47D): 16.6 µM (inactive)
GI50 (TK-10): 19.9 µM (inactive)
GI50 (UACC-62): 18 µM (inactive)

CSC(=S)CC(O)[C@@H]1CC2c3ccccc3C1c1ccccc12 (stereo not given in full)
GI50 (CCRF-CEM): 1.95 µM (inactive)
GI50 (DU-145): 15.2 µM (inactive)
GI50 (HL-60): 2.54 µM (inactive)
GI50 (IGROV-1): 11.8 µM (inactive)
GI50 (K562): 4.56 µM (inactive)
GI50 (KM12): 11.3 µM (inactive)
GI50 (M14): 12.7 µM (inactive)
GI50 (MDA-N): 11.7 µM (inactive)
GI50 (NCI/ADR-RES): 12.6 µM (inactive)
GI50 (OVCAR-4): 12.1 µM (inactive)
GI50 (OVCAR-8): 14.9 µM (inactive)
GI50 (RPMI-8226): 3.11 µM (inactive)
GI50 (SF-539): 17.9 µM (inactive)
GI50 (SNB-19): 11.2 µM (inactive)
GI50 (SR): 3.46 µM (inactive)
GI50 (T47D): 5.5 µM (inactive)
GI50 (TK-10): 15.2 µM (inactive)
GI50 (UACC-62): 12.1 µM (inactive)

COC1CC(C)(NC(=O)C(F)(F)F)C2OC(c3ccccc3)OCC2O1 (stereo not given)
GI50 (CCRF-CEM): > 100 µM (inactive)
GI50 (DU-145): > 100 µM (inactive)
GI50 (HL-60): > 100 µM (inactive)
GI50 (IGROV-1): > 100 µM (inactive)
GI50 (K562): > 100 µM (inactive)
GI50 (KM12): > 100 µM (inactive)
GI50 (M14): > 100 µM (inactive)
GI50 (MDA-N): > 100 µM (inactive)
GI50 (NCI/ADR-RES): > 100 µM (inactive)
GI50 (OVCAR-4): > 100 µM (inactive)
GI50 (OVCAR-8): > 100 µM (inactive)
GI50 (RPMI-8226): > 100 µM (inactive)
GI50 (SF-539): > 100 µM (inactive)
GI50 (SNB-19): > 100 µM (inactive)
GI50 (SR): > 100 µM (inactive)
GI50 (T47D): > 100 µM (inactive)
GI50 (TK-10): > 100 µM (inactive)
GI50 (UACC-62): > 100 µM (inactive)

c1coc(-c2nccc3c2[nH]c2ccccc23)c1
GI50 (CCRF-CEM): > 100 µM (inactive)
GI50 (DU-145): > 100 µM (inactive)
GI50 (HL-60): > 100 µM (inactive)
GI50 (IGROV-1): > 100 µM (inactive)
GI50 (K562): > 100 µM (inactive)
GI50 (KM12): > 100 µM (inactive)
GI50 (M14): > 100 µM (inactive)
GI50 (MDA-N): > 100 µM (inactive)
GI50 (NCI/ADR-RES): > 100 µM (inactive)
GI50 (OVCAR-4): > 100 µM (inactive)
GI50 (OVCAR-8): > 100 µM (inactive)
GI50 (SF-539): > 100 µM (inactive)
GI50 (SK-MEL-2): > 100 µM (inactive)
GI50 (SNB-19): > 100 µM (inactive)
GI50 (SR): > 100 µM (inactive)
GI50 (T47D): > 100 µM (inactive)
GI50 (TK-10): > 100 µM (inactive)
GI50 (UACC-62): > 100 µM (inactive)

CC(C)CC1c2[nH]c3ccccc3c2C[C@H]2C(=O)NC(COC(C)(C)C)C(=O)N12 (stereo not given in full)
GI50 (DU-145): 34.5 µM (inactive)
GI50 (HL-60): 26.4 µM (inactive)
GI50 (IGROV-1): 23.3 µM (inactive)
GI50 (K562): 31.7 µM (inactive)
GI50 (KM12): 24.1 µM (inactive)
GI50 (M14): 20.8 µM (inactive)
GI50 (MDA-N): 21.8 µM (inactive)
GI50 (NCI/ADR-RES): 20.8 µM (inactive)
GI50 (OVCAR-4): 30.5 µM (inactive)
GI50 (OVCAR-8): 33.1 µM (inactive)
GI50 (RPMI-8226): 23.9 µM (inactive)
GI50 (SK-MEL-2): 19.9 µM (inactive)
GI50 (SNB-19): 33.9 µM (inactive)
GI50 (SR): 16.4 µM (inactive)
GI50 (T47D): 13.2 µM (inactive)
GI50 (TK-10): 23 µM (inactive)
GI50 (UACC-62): 18.2 µM (inactive)

O=C1O[C@H]2[C@H](O)[C@@H](OC(=O)c3cc(O)c(O)c4c3[C@@H]3C1=CC(=O)C(O)(O)C3(O)O4)[C@H](OC(=O)c1cc(O)c(O)c(O)c1)O[C@@H]2CO (stereo not given in full) [FUROSIN]
GI50 (CCRF-CEM): 17.9 µM (inactive)
GI50 (DU-145): > 100 µM (inactive)
GI50 (HL-60): 28.2 µM (inactive)
GI50 (IGROV-1): > 100 µM (inactive)
GI50 (K562): 38.1 µM (inactive)
GI50 (KM12): 26.7 µM (inactive)
GI50 (M14): 62.2 µM (inactive)
GI50 (MDA-N): 33.6 µM (inactive)
GI50 (NCI/ADR-RES): > 100 µM (inactive)
GI50 (OVCAR-4): > 100 µM (inactive)
GI50 (OVCAR-8): 79.1 µM (inactive)
GI50 (RPMI-8226): > 100 µM (inactive)
GI50 (SK-MEL-2): > 100 µM (inactive)
GI50 (SNB-19): > 100 µM (inactive)
GI50 (SR): 32.1 µM (inactive)
GI50 (T47D): > 100 µM (inactive)
GI50 (UACC-62): 75.7 µM (inactive)
